What is called IC50 is the midpoint of a concentration-inhibition curve. Lower therefore signals inhibition by little substance.

Drawing on the Kinase Knowledgebase extract (Sharma et al. 2016), this text covers IC50 for two compounds.

In this experiment the test system is MAPK14 (sprague-dawley rat). In words: IL-1 beta-induced P38 Phosphorylation. To be noted: astrocyte.

Regarding `CC(C)(C)/[N+]([O-])=C/c1ccccc1`, the IC50 came out at 500 µM.

For `CC(=O)N[C@@H](CS)C(=O)O`, the IC50 is 500 µM.
